Data: patent US20180008688A1, “METHOD AND COMPOSITIONS FOR ENHANCING IMMUNOTHERAPEUTIC TREATMENT OF A CANCER” (Augusta University Research Institute, Inc., priority 2016, published 2018)
“Also recorded” adds a separate entry of the source. Where two headings read alike, the source gives them in different places.

Columns and labels:
p53 = p53 expression in mononuclear cells of tumors after systemic nutlin-3a (FACS); assay type: in vivo, mouse; conditions: FIG. 7
Procedure: Antibody against the N-terminus of p53 (clone 1C12), used as in Watanabe et al., (2014) Immunity 40: 681-691, was from Cell Signaling Technology. Antibody against the C-terminus p53 (clone PAb122 (Gurney et al., (1980) J. Virol. 34: 752-763) was from Novus Biologicals. For both antibodies, staining was performed following permeablization with eBioscience fix-and-perm. Anti-phospho-p53(Ser15) (clone D4S1H) was from Cell Signaling Technology. For phospho-specific staining, cells were washed in PBS, fixed with 2% paraformaldehyde for 10 min at 37° C., pre-chilled for 1 min, then permeabilized by slow addition of ice-cold methanol to a final concentration of 90%. Cells were then incubated on ice for 30 min, washed with 1% FCS/PBS, blocked with the same solution for 10 min at room temperature, then for 1 h at room temperature and washed. Cells were acquired immediately after staining.
VO-OHpic was given at 10 mg/kg/day i.p., in 10% DMSO/PBS. Cyclophosphamide was given at 150 mg/kg i.p×1 dose. Oxaliplatin was given at 5 mg/kg i.p×1 dose. Nutlin-3a was dissolved at 2 mg/ml in 10% DMSO in buffered saline and administered daily at 10 mg/kg/day i.p. The 10 mg/kg/day dose was at the lower end of the parenteral dosing range described for mice (Zhang et al., (2011) Drug Meta. Dispos. 39: 15-21). […]

B16F10 tumors = assay type: in vivo; conditions: for anti-tumor effect: nutlin-3a added to CTX/VO-OHpic, FIG. 8B
Procedure: In vivo tumor studies: The B16F10 and E.G7 (EL4-OVA) cell lines were obtained from ATCC. B16-OVA (B16F10 transfected with full-length chicken ovalbumin) clone MO4 was according to Falo et al. ((1995) Nat. Med. 1: 649-653). B16F10 cells expressing EGFP protein (B16-GFP cells) were derived using lentiviral transfection. Tumor implantation was performed as described (Sharma et al., (2007) J. Clin. Invest. 117: 2570-2582), using 1×10^5 cells for B16F10 and 1×10^6 cells for other cell lines (large inocula were used to ensure rapid tumor engraftment and immune suppression). […] Tumor volume was calculated from orthogonal diameters using the formula V=L×W^2×π/6. Mice received approved euthanasia when tumors reached a size of 300 mm^2 (product of orthogonal diameters); death was never used a planned endpoint in any study.
(§1) Tumor implantation was performed as described (Sharma et al., (2007) J. Clin. Invest. 117: 2570-2582). VO-OHpic was given at 10 mg/kg/day i.p., in 10% DMSO/PBS. Cyclophosphamide was given at 150 mg/kg i.p×1 dose; and oxaliplatin at 5 mg/kg i.p×1 dose. Nutlin-3a was administered daily at 10 mg/kg/day i.p. For checkpoint blockade, mice received anti-CTLA-4 plus a cocktail of antibodies against the PD-1 pathway. Vaccines and T cell adoptive transfer studies were performed as described (Sharma et al., (2015) Sci. Advances. 1: e1500845).
VO-OHpic/CTX, nutlin-3a, oxaliplatin and immunotherapy regimens: The vanadate compound VO-OHpic (Mak et al., (2010) J. Chem. Biol. 3: 157-163) inhibits PTEN activity, and this drug was used to destabilize PTEN+Tregs during chemotherapy. Like all of the available PTEN-inhibitors, VO-OHpic can also affect other phosphatases (Spinelli et al., (2015) Adv. Biol. Regul. 57: 102-111).
VO-OHpic was given at 10 mg/kg/day i.p., in 10% DMSO/PBS. Cyclophosphamide was given at 150 mg/kg i.p×1 dose. Oxaliplatin was given at 5 mg/kg i.p×1 dose. […] For checkpoint blockade, mice received anti-CTLA-4 (clone 9D9, BioXcell) plus a cocktail of antibodies against the PD-1 pathway: anti-PD-L2, clone TY25 (Yamazaki et al., (2002) J. Immunol. 169: 5538-5545); anti-PD-1, clone J43 (Agata et al., (1996) Int. Immunol. 8: 765-772); and anti-PD-L1, clone MIH7 (Tsushima et al., (2003) Eur. J. Immunol. 33: 2773-2782). A cocktail was used in order to block the PD-1 pathway as completely as possible and thus minimize any peculiarities of a single blocking antibody.

E.G7 tumors = assay: E.G7/oxaliplatin model in LysMcre/p53-KO hosts with or without nutlin-3a; assay type: in vivo, mouse; conditions: mice lacking myeloid p53; FIG. 8D
Text: To test whether the relevant target of nutlin in tumors was specifically the p53 expression in myeloid dendritic cells, the E.G7/oxaliplatin model in LysMcre/p53-KO hosts was used. If mice lacked the relevant p53 in tumor-associated myeloid cells, then LysMcre/p53-KO mice should lose all anti-tumor effect of nutlin. For these studies, mice received congenically-marked OT-I cells to monitor whether T cells were still rescued by IL-12 in tumors.
Mice with a nuclear-localizing Cre-recombinase knock-in replacing one copy of the Lyz2 gene (Clausen et al., (1999) Transgenic Res. 8: 265-277) (strain 004781, Jax) were crossed as heterozygotes with homozygous p53^flox/flox mice (Marino et al., (2000) Genes Dev. 14: 994-1004) (strain 008462, Jax).
as §1

OT-I T cells = assay: Autoimmune diabetes in RIP-mOVA mice after OT-I T cell transfer (no tumor); assay type: in vivo, mouse
Procedure: Accordingly and without wishing to be bound by any one hypothesis, it is likely that p53 can play two different immunologic roles, depending on the context (tumor versus normal tissues). […] Following T cell transfer, these mice progressively developed lethal autoimmune diabetes. However, if mice were treated with nutlin-3a diabetes formation was suppressed and the mice remained healthy.

[1] = nutlin-3a added to VO-OHpic+CTX

COc1ccc(C2=NC(c3ccc(Cl)cc3)C(c3ccc(Cl)cc3)N2C(=O)N2CCNC(=O)C2)c(OC(C)C)c1 (single isomer, unassigned; (-)) [nutlin-3a, (−)-4-(4,5-Bis(4-chlorophenyl)-2-(2-isopropoxy-4-methoxyphenyl)-4,5-dihydro-1H-imidazole-1-carbonyl)piperazin-2-one]
effect on p53 in remaining tumor cells (negative for CD11c/Ly6c/Gr 1) (p53): little effect | increase in p53 levels in CD11c+ cells and myeloid cells in tumors (p53; systemic nutlin-3a, including Ly6c+CD11c^NEG myeloid precursors): 2-3 fold | anti-tumor effect (B16F10 tumors): maintained a prolonged anti-tumor response | anti-tumor effect (B16F10 tumors; listed as Nutlin-3a): markedly prolonged and maintained the anti-tumor effect | Ly6c+CD103+ dendritic cells in tumors (B16F10 tumors; [1]): large population | phospho-p53-Ser15 in dendritic cells (B16F10 tumors; [1]): sustained elevation | anti-tumor effect of nutlin-3a (E.G7 tumors): lost all anti-tumor effects; also recorded: lost all ability to enhance anti-tumor immunity | level of p53 in OT-I cells in pancreatic LNs (OT-I T cells; mouse, in vivo): increased | diabetes formation (OT-I T cells; nutlin-3a treatment after OT-I transfer): suppressed | expression of granzyme B in OT-I cells (OT-I T cells; pancreatic LNs): decreasing
